Assays:
[1] = MTT Cell Proliferation Assay (CellTiter 96 AQueous One Solution, MTS); assay type: cell-based; conditions: human; 72 h treatment; cell line not given; read-out: Cytotoxicity [IC50]
Text: The CellTiter 96® AQueous One Solution cell proliferation assay (Promega) was used on MM1.S, Jurkat and HCT-116 cells to study the cytotoxic and cytostatic properties of the compounds. The assay is based on the cleavage of the tetrazolium salt, MTS, in the presence of an electron-coupling reagent PES (phenazine ethosulfate). The MTS tetrazolium compound is bioreduced by cells into a colored formazan product that is soluble in tissue culture medium. This conversion is presumably accomplished by NADPH or NADH produced by dehydrogenase enzymes in metabolically active cells. Assays are performed by adding a small amount of the CellTiter 96® AQueous One solution reagent directly to culture wells, incubating for 1-4 hours and then recording the absorbance at 490 nm with a 96-well plate reader. […] The cells were seeded at 5×10^3 to 1.5×10^4 cells (depending on cell type) in each well of 96-well plate in 100 μL of fresh culture medium and adherent cells were allowed to attach for overnight. The stock solutions of the compounds were diluted in cell culture medium to obtain eight concentrations of each drug, ranging from 1 nM to 30 μM and DMSO at less than 1% v/v was used as a negative control. After 72 h of treatment 20 μl of CellTiter 96® AQueous reagent was added into each well of the 96-well assay plates and the plate was incubate at 37° C. for 1-4 hours in a humidified, 5% CO2 atmosphere. Then the absorbance of each well was recorded at 490 nm by using a 96-well plate reader. In most cases the assay was performed in triplicates and the results were presented as half maximal inhibitory concentration (IC50) described below. Optical density versus compound concentration was plotted and analyzed using non linear regression equations (Excel Fit) and the IC50 for each compound was calculated.

[2] = Pharmacokinetics (plasma AUC) in mice; assay type: in vivo; conditions: mouse
Procedure: Blood was collected from mice (N=3) to contribute to the total of 10 time points (pre-dose, 5 min, 15 min, 30 min, 1 hour, 2 hours, 4 hours, 8 hours, 12 hours and 24 hours post dose). Mice were bled on a rotating basis, each mouse contributing 3 time points to the blood collection. At the designated time points, animals were anaesthetized under isoflurane, and approximately 110 μL of blood per time point was collected via retro-orbital puncture into pre-cooled K2EDTA (anti-coagulant) tubes. Blood samples were put on wet ice and centrifuged (2000 g, 5 min at 4° C.) to obtain plasma within 30 minutes of sample collection. All samples were stored frozen at approximately −80° C. until analysis. Prior to analysis, samples were mixed with internal standard (dexamethasone) in acetonitrile, vortexed, centrifuged, and supernatant was injected for analysis. Concentration of compounds in plasma was determined using LC-MS-MS instrumentation (API 4000, Triple Quadruple with electrospray ionization; Acuity Ultra Performance Liquid Chromatography column C18, with MeOH and formic acid as organic solvents). PK parameters including but not limited to Tmax, Cmax, t1/2, AUClast, AUCinf were calculated using WinNonlin Professional 6.2 software package, non-compartmental pharmacokinetic model NCA200.

[3] = Brain to plasma ratio (B:P) in mice; assay type: in vivo; conditions: for Kp at 2 h: mouse, brain and plasma, 10 mg/kg po, 2 hours post-dose
Procedure: Brain tissue following collection was rinsed with cold saline, dried on filter paper, weighed and snap-frozen by placing on dry ice. All samples were stored frozen at approximately −80° C. until analysis. […] Plasma samples were treated with the identical method (except homogenization step) and concentration of compound in either matrix was calculated based on the generated standard curves.

CRM1 = molecular target: T1, CRM1 (Homo sapiens, UniProt O14980); assay: RevGFP assay: inhibition of CRM1 mediated nuclear export; assay type: cell-based; conditions: U2OS-RevGFP cells, ~1 hr with compound; read-out: Rev Export [IC50]
T1 construct: endogenous in cells; host or cells: U2OS-RevGFP cells
Procedure: The inhibition of CRM1 mediated nuclear export by compounds of the invention was determined. The inhibitory activity of compounds for the CRM1 protein was determined in the RevGFP assay.
Experimental protocol: Rev is a protein from human immunodeficiency virus type 1 (HIV-1) and contains a nuclear export signal (NES) in its C-terminal domain and a nuclear localization signal (NLS) in its N-terminal domain. Nuclear export of Rev protein is dependent on the classical NES/CRM1 pathway (Neville et al, 1997, Kau et al, 2003). Nuclear accumulation of Rev is observed in cells treated with specific inhibitors of CRM1, such as LMB (Kau et al, 2003). In this assay, U2OS-RevGFP cells are seeded onto clear-bottom, black, 384-well plates the day before the experiment. Compounds are serially diluted 1:2 starting from 40 μM in a separate 384-well plate in DMEM, and then transferred onto cells. Cells are incubated with compound for ˜1 hr before fixation with 3.7% formaldehyde and nuclei staining with Hoechst 33258. The amount of GFP in cell nuclei was measured and compound IC50s were determined (Kau et al, 2003).

T1 sequence (O14980 whole entry): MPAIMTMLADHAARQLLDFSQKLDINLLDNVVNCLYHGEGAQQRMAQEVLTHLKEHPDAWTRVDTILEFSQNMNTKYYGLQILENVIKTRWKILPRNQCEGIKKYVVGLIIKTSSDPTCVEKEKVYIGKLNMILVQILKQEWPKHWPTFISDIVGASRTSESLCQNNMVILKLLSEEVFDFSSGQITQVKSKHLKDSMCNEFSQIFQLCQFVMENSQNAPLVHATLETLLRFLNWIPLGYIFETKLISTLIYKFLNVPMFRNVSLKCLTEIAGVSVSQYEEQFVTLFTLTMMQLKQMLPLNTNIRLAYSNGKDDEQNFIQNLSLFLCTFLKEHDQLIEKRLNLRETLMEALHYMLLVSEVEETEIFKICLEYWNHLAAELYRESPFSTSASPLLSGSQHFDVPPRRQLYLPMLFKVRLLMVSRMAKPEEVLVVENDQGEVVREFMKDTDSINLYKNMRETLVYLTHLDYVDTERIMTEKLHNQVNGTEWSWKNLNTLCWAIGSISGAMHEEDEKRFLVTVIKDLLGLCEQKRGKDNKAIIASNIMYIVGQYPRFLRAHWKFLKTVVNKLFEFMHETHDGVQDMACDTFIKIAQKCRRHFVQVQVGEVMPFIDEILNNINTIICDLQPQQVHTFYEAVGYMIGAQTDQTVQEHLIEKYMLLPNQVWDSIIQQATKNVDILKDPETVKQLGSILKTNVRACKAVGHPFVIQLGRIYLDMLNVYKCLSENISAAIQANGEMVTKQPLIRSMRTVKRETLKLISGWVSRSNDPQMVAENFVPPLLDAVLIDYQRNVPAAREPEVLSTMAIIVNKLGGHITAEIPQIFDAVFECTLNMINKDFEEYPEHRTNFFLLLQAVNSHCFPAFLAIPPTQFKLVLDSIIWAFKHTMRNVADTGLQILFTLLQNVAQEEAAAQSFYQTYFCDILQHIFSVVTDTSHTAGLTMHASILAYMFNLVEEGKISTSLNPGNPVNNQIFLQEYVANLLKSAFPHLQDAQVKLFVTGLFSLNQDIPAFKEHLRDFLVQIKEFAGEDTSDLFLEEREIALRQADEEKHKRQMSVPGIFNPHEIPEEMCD

SMILES | IC50 at 72 h [1] [µM] | AUC(0-inf) ([2]; 10 mg/kg po) [ng·h/mL] | Kp at 2 h [3] | IC50 (CRM1) [µM] | AUC(0-inf) ([2]; 5 mg/kg iv) [ng·h/mL] | levels in the brain ([3]; dosed po) | AUC(0-inf) ([2]; 5 mg/kg po) [ng·h/mL]
CC1COCC(C)N1CC(=O)NNC(=O)/C=C\n1cnc(-c2cc(C(F)(F)F)cc(C(F)(F)F)c2)n1 (stereo not drawn) [Compound 13, (Z)-3-(3-(3,5-bis(trifluoromethyl)phenyl)-1H-1,2,4-triazol-1-yl)-N′-(2-(3,5-dimethylmorpholino)acetyl)acrylohydrazide] | < 1 | 1100 | 1.5 | – | – | – | –
CC1(C)COCCN1CC(=O)NNC(=O)/C=C\n1cnc(-c2cc(C(F)(F)F)cc(C(F)(F)F)c2)n1 [Compound 15, (Z)-3-(3-(3,5-bis(trifluoromethyl)phenyl)-1H-1,2,4-triazol-1-yl)-N′-(2-(3,3-dimethylmorpholino)acetyl)acrylohydrazide] | < 1 | 588 | 0 | – | – | – | –
O=C(/C=C\n1cnc(-c2cc(C(F)(F)F)cc(C(F)(F)F)c2)n1)NNC(=O)CN1CCOCC1=O [Compound 14, (Z)-3-(3-(3,5-bis(trifluoromethyl)phenyl)-1H-1,2,4-triazol-1-yl)-N′-(2-(3-oxomorpholino)acetyl)acrylohydrazide] | < 1 | 1420 | 0 | – | – | – | –
O=C(/C=C\n1cnc(-c2cc(C(F)(F)F)cc(C(F)(F)F)c2)n1)NNC(=O)C(=O)N1CCOCC1 [Compound 12, (Z)-3-(3-(3,5-bis(trifluoromethyl)phenyl)-1H-1,2,4-triazol-1-yl)-N′-(2-morpholino-2-oxoacetyl)acrylohydrazide] | < 1 | 19600 | 0.06 | < 1 | – | – | –
CN(NC(=O)/C=C\n1cnc(-c2cc(C(F)(F)F)cc(C(F)(F)F)c2)n1)C(=O)CN1CCOCC1 [Compound 5, (Z)-3-(3-(3,5-bis(trifluoromethyl)phenyl)-1H-1,2,4-triazol-1-yl)-N′-methyl-N′-(2-morpholinoacetyl)acrylohydrazide] | < 1 | – | – | – | – | – | –
COc1cc(-c2ncn(/C=C\C(=O)OC(C)C)n2)cc(C(F)(F)F)c1 [Compound X-1, reference compound] | < 1 | – | – | < 1 | 209 | below the quantitation limit | –
O=C(/C=C\n1cnc(-c2cc(C(F)(F)F)cc(C(F)(F)F)c2)n1)NNC(=O)c1cnccn1 [Compound 8, (Z)—N′-(3-(3-(3,5-bis(trifluoromethyl)phenyl)-1H-1,2,4-triazol-1-yl)acryloyl)pyrazine-2-carbohydrazide] | < 1 | 9150 | 0.41 | – | – | – | –
Cc1[nH]ncc1C(=O)NNC(=O)/C=C\n1cnc(-c2cc(C(F)(F)F)cc(C(F)(F)F)c2)n1 [Compound 3, (Z)—N′-(3-(3-(3,5-bis(trifluoromethyl)phenyl)-1H-1,2,4-triazol-1-yl)acryloyl)-5-methyl-1H-pyrazole-4-carbohydrazide] | < 1 | 15200 | 0.03 | < 1 | – | – | –
O=C(/C=C\n1cnc(-c2cc(C(F)(F)F)cc(C(F)(F)F)c2)n1)NNC(=S)NC1CC1 [Compound 4, (Z)-2-(3-(3-(3,5-bis(trifluoromethyl)phenyl)-1H-1,2,4-triazol-1-yl)acryloyl)-N-cyclopropylhydrazinecarbothioamide] | < 1 | 20900 | 0.028 | – | – | – | –
CC(C)[C@@H](N)C(=O)NNC(=O)/C=C\n1cnc(-c2cc(C(F)(F)F)cc(C(F)(F)F)c2)n1 [Compound 10, (R,Z)-2-amino-N′-(3-(3-(3,5-bis(trifluoromethyl)phenyl)-1H-1,2,4-triazol-1-yl)acryloyl)-3-methylbutanehydrazide 2,2,2-trifluoroacetate] | < 1 | – | – | – | – | – | –
O=C(/C=C\n1cnc(-c2cc(C(F)(F)F)cc(C(F)(F)F)c2)n1)NNC(=O)Cc1cnccn1 [Compound 11, (Z)-3-(3-(3,5-bis(trifluoromethyl)phenyl)-1H-1,2,4-triazol-1-yl)-N′-(2-(pyrazin-2-yl)acetyl)acrylohydrazide] | < 1 | 8340 | 0.095 | – | – | – | –
CC(C)[C@H](N)C(=O)NNC(=O)/C=C\n1cnc(-c2cc(C(F)(F)F)cc(C(F)(F)F)c2)n1 [Compound 7, (S,Z)-2-amino-N′-(3-(3-(3,5-bis(trifluoromethyl)phenyl)-1H-1,2,4-triazol-1-yl)acryloyl)-3-methylbutanehydrazide 2,2,2-trifluoroacetate] | < 1 | – | – | – | – | – | –
CN1CCC(C(=O)NNC(=O)/C=C\n2cnc(-c3cc(C(F)(F)F)cc(C(F)(F)F)c3)n2)CC1 [Compound 9, (Z)—N′-(3-(3-(3,5-bis(trifluoromethyl)phenyl)-1H-1,2,4-triazol-1-yl)acryloyl)-1-methylpiperidine-4-carbohydrazide] | < 1 | – | – | – | – | – | 671
O=C(/C=C\n1cnc(-c2cc(C(F)(F)F)cc(C(F)(F)F)c2)n1)NNC(=O)C1CCCNC1 (stereo not drawn) [Compound 6, (Z)—N′-(3-(3-(3,5-bis(trifluoromethyl)phenyl)-1H-1,2,4-triazol-1-yl)acryloyl)piperidine-3-carbohydrazide] | < 1 | – | – | – | – | – | –
